Data on 29 compounds can be found in patent publication US20230078764A1 (Yumanity Therapeutics, Inc., priority 2019, published 2023).

Molecules are shown by their SMILES.

Test [1] addresses T1, human SCD5 (Homo sapiens, UniProt Q86SK9).
T1 construct: expressed in transfected cells; host or cells: yeast strain with OLE1 deleted, plasmid-borne human SCD5 (selected in SD-Ura)
T1 sequence (Q86SK9 1-330): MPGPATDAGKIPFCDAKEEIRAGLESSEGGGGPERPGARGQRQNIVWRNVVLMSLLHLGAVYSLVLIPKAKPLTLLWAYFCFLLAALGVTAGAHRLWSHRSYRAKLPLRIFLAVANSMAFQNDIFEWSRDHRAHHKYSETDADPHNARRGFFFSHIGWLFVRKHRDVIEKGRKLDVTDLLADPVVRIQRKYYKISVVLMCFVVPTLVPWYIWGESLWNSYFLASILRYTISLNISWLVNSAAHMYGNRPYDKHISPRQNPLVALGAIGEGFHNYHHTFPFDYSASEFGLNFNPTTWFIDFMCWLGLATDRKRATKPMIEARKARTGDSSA
Put plainly: Growth inhibition of yeast strain expressing human SCD5 as sole desaturase (OLE1 deleted), OD600 readout. Format: cell-based. As to conditions: yeast strain expressing human SCD5 as sole desaturase; growth (OD600) after 40 h at 30° C.; read-out: SCD5 IC50.

The target of test [2] is T2, human SCD1 (Homo sapiens, UniProt O00767).
T2 construct: expressed in transfected cells; host or cells: yeast strain with OLE1 deleted, plasmid-borne human SCD1 (selected in SD-Ura)
T2 sequence (O00767 1-359): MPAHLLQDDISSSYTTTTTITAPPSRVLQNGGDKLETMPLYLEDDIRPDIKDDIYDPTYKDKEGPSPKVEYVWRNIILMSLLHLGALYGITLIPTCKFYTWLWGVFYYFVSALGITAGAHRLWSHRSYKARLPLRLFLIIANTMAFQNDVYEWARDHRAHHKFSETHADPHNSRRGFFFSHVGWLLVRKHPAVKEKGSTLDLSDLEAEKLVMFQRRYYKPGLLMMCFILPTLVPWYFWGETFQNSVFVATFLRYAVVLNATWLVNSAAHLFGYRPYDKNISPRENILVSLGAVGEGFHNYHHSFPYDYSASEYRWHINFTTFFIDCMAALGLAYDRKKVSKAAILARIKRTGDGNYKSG
Put plainly: Growth inhibition of yeast strain expressing human SCD1 as sole desaturase (OLE1 deleted), OD600 readout. In kind it is cell-based. As to conditions: yeast strain expressing human SCD1 as sole desaturase; growth (OD600) after 40 h at 30° C.; read-out: SCD1 IC50.

For the compound `O=C(Nc1ccc(Cc2cccc(F)c2)cn1)c1ccc2nncn2c1` [Compound 151, N-(5-(3-fluorobenzyl)pyridin-2-yl)-[1,2,4]triazolo[4,3-a]pyridine-6-carboxamide], the concentration for half-maximal inhibition (IC50) in test [1] was found to be 0.08 µM; in test [2] it was 1.34 µM.

For the compound `Cn1ncc2cc(-c3ccc(Cc4cccc(F)c4)cn3)ccc21` [Compound 153, 5-(5-(3-fluorobenzyl)pyridin-2-yl)-1-methyl-1H-indazole], the IC50 in test [1] amounted to 7.6 µM; in test [2] it was 5.3 µM.

As to `O=C(Nc1ccc(Cc2cccc(F)c2)cn1)c1ccc2nccn2c1` [Compound 154, N-(5-(3-fluorobenzyl)pyridin-2-yl)imidazo[1,2-a]pyridine-6-carboxamide], the IC50 in test [1] is 14.6 µM; in test [2], over 45 µM.

As to `O=C(Nc1ccc(Cc2cccc(Cl)c2)cn1)c1ccc2nccn2c1` [Compound 155, N-(5-(3-chlorobenzyl)pyridin-2-yl)imidazo[1,2-a]pyridine-6-carboxamide], the half-maximal inhibitory concentration (IC50) in test [1] turned out to be 7.8 µM; in test [2], 24.7 µM.

On to `CN1N=C(C(=O)Nc2ccc(Oc3ccccc3Cl)cn2)CCC1=O` [Compound 156, N-(5-(2-chlorophenoxy)pyridin-2-yl)-1-methyl-6-oxo-1,4,5,6-tetrahydropyridazine-3-carboxamide], for which the figures for the half-maximal inhibitory concentration (IC50) in test [1] and in test [2] were 28.1 µM and over 45 µM, respectively.

As to `CN1N=C(C(=O)Nc2ccc(Oc3cccc(Cl)c3)cn2)CCC1=O` [Compound 157, N-(5-(3-chlorophenoxy)pyridin-2-yl)-1-methyl-6-oxo-1,4,5,6-tetrahydropyridazine-3-carboxamide], the values for the IC50 in test [1] and in test [2] were 6.65 µM and over 45 µM, respectively.

As to `CN1N=C(C(=O)Nc2ccc(Oc3ccc(Cl)cc3)cc2)CCC1=O` [Compound 158, N-(4-(4-chlorophenoxy)phenyl)-1-methyl-6-oxo-1,4,5,6-tetrahydropyridazine-3-carboxamide], the values for the IC50 in test [1] and in test [2] were 6.19 µM and 10.5 µM, respectively.

Take `CN1N=C(C(=O)Nc2ccc(Oc3cccc(Cl)c3)cc2)CCC1=O` [Compound 159, N-(4-(3-chlorophenoxy)phenyl)-1-methyl-6-oxo-1,4,5,6-tetrahydropyridazine-3-carboxamide]: the IC50 was 8.04 µM in test [1] and over 45 µM in test [2].

Regarding `Cn1cc(C(=O)Nc2ccc(Oc3cccc(Cl)c3)cn2)ccc1=O` [Compound 161, N-[5-(3-chlorophenoxy)pyridin-2-yl]-1-methyl-6-oxo-1,6-dihydropyridine-3-carboxamide], the IC50 in test [1] was 1.64 µM; in test [2], over 45 µM.

Take `Cn1nc(C(=O)Nc2ccc(Oc3cccc(Cl)c3)cn2)ccc1=O` [Compound 163, N-[5-(3-chlorophenoxy)pyridin-2-yl]-1-methyl-6-oxo-1,6-dihydropyridazine-3-carboxamide]: the 50% inhibitory concentration (IC50) was 0.24 µM in test [1] and over 45 µM in test [2].

As for `CCn1cc(C(=O)Nc2ccc(Oc3cccc(Cl)c3)cn2)ccc1=O` [Compound 165, N-[5-(3-chlorophenoxy)pyridin-2-yl]-1-ethyl-6-oxo-1,6-dihydropyridine-3-carboxamide], the IC50 turned out to be 3.31 µM in test [1] and 14.2 µM in test [2].

Turning to `CC(C)n1cc(C(=O)Nc2ccc(Oc3cccc(Cl)c3)cn2)ccc1=O` [Compound 166, N-[5-(3-chlorophenoxy)pyridin-2-yl]-6-oxo-1-(propan-2-yl)-1,6-dihydropyridine-3-carboxamide], the IC50 in test [1] worked out at 9.36 µM; in test [2], 14.7 µM.

On to `Cn1cc(C(=O)Nc2ccc(Oc3ccc(F)c(Cl)c3)cn2)ccc1=O` [Compound 167, N-[5-(3-chloro-4-fluorophenoxy)pyridin-2-yl]-1-methyl-6-oxo-1,6-dihydropyridine-3-carboxamide], for which the IC50 is 0.93 µM in test [1] and 25.9 µM in test [2].

For the compound `Cn1nc(C(=O)Nc2ccc(Oc3ccc(F)c(Cl)c3)cn2)ccc1=O` [Compound 168, N-[5-(3-chloro-4-fluorophenoxy)pyridin-2-yl]-1-methyl-6-oxo-1,6-dihydropyridazine-3-carboxamide], the IC50 in test [1] was 1.72 µM; in test [2], over 45 µM.

As for `CCn1cc(C(=O)Nc2ccc(Oc3ccc(F)c(Cl)c3)cn2)ccc1=O` [Compound 169, N-[5-(3-chloro-4-fluorophenoxy)pyridin-2-yl]-1-ethyl-6-oxo-1,6-dihydropyridine-3-carboxamide], the concentration for half-maximal inhibition (IC50) in test [1] is 2.48 µM; in test [2], over 45 µM.

As to `CN1N=C(C(=O)Nc2ccc(OCc3cccc(Cl)c3)cn2)CCC1=O` [Compound 170, N-(5-(3-chlorobenzyloxy)pyridin-2-yl)-1-methyl-6-oxo-1,4,5,6-tetrahydropyridazine-3-carboxamide], the IC50 in test [1] was 1.07 µM; in test [2], over 45 µM.

Consider `Cn1nc(C(=O)Nc2ccc(OCc3cccc(Cl)c3)cn2)ccc1=O` [Compound 171, N-(5-(3-chlorobenzyloxy)pyridin-2-yl)-1-methyl-6-oxo-1,6-dihydropyridazine-3-carboxamide], for which the IC50 in test [1] is 0.86 µM; in test [2], over 45 µM.

Regarding `Cn1cc(C(=O)Nc2ccc(COc3cccc(Cl)c3)cn2)ccc1=O` [Compound 172, N-(5-((3-chlorophenoxy)methyl)pyridin-2-yl)-1-methyl-6-oxo-1,6-dihydropyridine-3-carboxamide], the IC50 in test [1] was 0.37 µM; in test [2], 2.29 µM.

Take `Cn1cc(C(=O)Nc2ccc(CNc3cccc(Cl)c3)cn2)ccc1=O` [Compound 173, N-(5-((3-Chlorophenylamino)methyl)pyridin-2-yl)-1-methyl-6-oxo-1,6-dihydropyridine-3-carboxamide]: the values for the IC50 in test [1] and in test [2] were 0.15 µM and 1.72 µM, respectively.

`Cn1nc(C(=O)Nc2ccc(CNc3cccc(Cl)c3)cn2)ccc1=O` [Compound 174, N-(5-((3-Chlorophenylamino)methyl)pyridin-2-yl)-1-methyl-6-oxo-1,6-dihydropyridazine-3-carboxamide]: the IC50 in test [1] is 0.08 µM; in test [2], 7.56 µM.

On to `Cn1cc(C(=O)Nc2ccc(Cc3cccc(F)c3)nn2)ccc1=O` [Compound 176, N-(6-(3-fluorobenzyl)pyridazin-3-yl)-1-methyl-6-oxo-1,6-dihydropyridine-3-carboxamide], for which the results for the IC50 in test [1] and in test [2] were 2.66 µM and over 45 µM, respectively.

Take `CN1N=C(C(=O)Nc2ccc(Cc3cc(Cl)ccc3F)nn2)CCC1=O` [Compound 177, N-(6-(5-chloro-2-fluorobenzyl)pyridazin-3-yl)-1-methyl-6-oxo-1,4,5,6-tetrahydropyridazine-3-carboxamide]: the results for the IC50 in test [1] and in test [2] were 5.49 µM and over 45 µM, respectively.

On to `O=C(Nc1ccc(Cc2cccc(F)c2)nn1)c1ccc(=O)n(C2CC2)n1` [Compound 178, 1-cyclopropyl-N-{6-[(3-fluorophenyl)methyl]pyridazin-3-yl}-6-oxo-1,6-dihydropyridazine-3-carboxamide], for which the IC50 in test [1] was 0.77 µM; in test [2] it was 6.67 µM.

Turning to `CN1N=C(C(=O)Nc2ccc(Cc3ccc(F)c(Cl)c3)nn2)CCC1=O` [Compound 179, N-(6-(3-chloro-4-fluorobenzyl)pyridazin-3-yl)-1-methyl-6-oxo-1,4,5,6-tetrahydropyridazine-3-carboxamide], the half-inhibitory concentration (IC50) in test [1] was 1.03 µM; in test [2], over 45 µM.

`Cn1nc(C(=O)Nc2ccc(Cc3ccc(F)c(Cl)c3)nn2)ccc1=O` [Compound 180, N-(6-(3-chloro-4-fluorobenzyl)pyridazin-3-yl)-1-methyl-6-oxo-1,6-dihydropyridazine-3-carboxamide]: the IC50 in test [1] came out at 0.91 µM; in test [2] it was 6.02 µM.

For the compound `CN1N=C(C(=O)Nc2ccc(COc3cccc(Cl)c3)nn2)CCC1=O` [Compound 181, N-(6-((3-chlorophenoxy)methyl)pyridazin-3-yl)-1-methyl-6-oxo-1,4,5,6-tetrahydropyridazine-3-carboxamide], the values for the IC50 in test [1] and in test [2] were 1.22 µM and over 45 µM, respectively.

For `Cn1cc(C(=O)Nc2ccc(Cc3cccc(Cl)c3)nn2)ccc1=O` [Compound 183, N-(6-(3-chlorobenzyl)pyridazin-3-yl)-1-methyl-6-oxo-1,6-dihydropyridine-3-carboxamide], the IC50 in test [1] came out at 1.41 µM; in test [2], 10.7 µM.

As for `CCn1cc(C(=O)Nc2ccc(Cc3cccc(Cl)c3)nn2)ccc1=O` [Compound 184, N-(6-(3-chlorobenzyl)pyridazin-3-yl)-1-ethyl-6-oxo-1,6-dihydropyridine-3-carboxamide], the IC50 was 28.9 µM in test [1] and over 45 µM in test [2].

Regarding `CCn1nc(C(=O)Nc2ccc(Cc3cccc(Cl)c3)nn2)ccc1=O` [Compound 185, N-(6-(3-chlorobenzyl)pyridazin-3-yl)-1-ethyl-6-oxo-1,6-dihydropyridazine-3-carboxamide], the IC50 in test [1] is 8.59 µM; in test [2], over 45 µM.
